pIC50: −log10 of the molar value.
target: T1, α4β1 integrin (Homo sapiens, UniProt P05556+P13612); assay: Adhesion of calcein-labeled Ramos cells to CS1 (fibronectin) peptide conjugated ovalbumin; type: cell-based; conditions: Table 2; Ramos cell adhesion to CS1 conjugated ovalbumin, 30 minutes at 37° C.
T1 construct: endogenous in cells; host or cells: Ramos cells
Procedure, shortened: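 Calcein AM-labelled Ramos cells (2.5×10^5/well) with compound, up to 100 μM, added to plates coated with CS1 peptide–ovalbumin (0.5 μg/ml) and blocked with 3% BSA. Binding buffer TBS pH 7.5 with 1 mM each MgCl2, CaCl2, MnCl2; 30 min, 37 °C. After washes, adherent cells lysed and read fluorometrically; […].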

T1 sequence (P13612 34-1032): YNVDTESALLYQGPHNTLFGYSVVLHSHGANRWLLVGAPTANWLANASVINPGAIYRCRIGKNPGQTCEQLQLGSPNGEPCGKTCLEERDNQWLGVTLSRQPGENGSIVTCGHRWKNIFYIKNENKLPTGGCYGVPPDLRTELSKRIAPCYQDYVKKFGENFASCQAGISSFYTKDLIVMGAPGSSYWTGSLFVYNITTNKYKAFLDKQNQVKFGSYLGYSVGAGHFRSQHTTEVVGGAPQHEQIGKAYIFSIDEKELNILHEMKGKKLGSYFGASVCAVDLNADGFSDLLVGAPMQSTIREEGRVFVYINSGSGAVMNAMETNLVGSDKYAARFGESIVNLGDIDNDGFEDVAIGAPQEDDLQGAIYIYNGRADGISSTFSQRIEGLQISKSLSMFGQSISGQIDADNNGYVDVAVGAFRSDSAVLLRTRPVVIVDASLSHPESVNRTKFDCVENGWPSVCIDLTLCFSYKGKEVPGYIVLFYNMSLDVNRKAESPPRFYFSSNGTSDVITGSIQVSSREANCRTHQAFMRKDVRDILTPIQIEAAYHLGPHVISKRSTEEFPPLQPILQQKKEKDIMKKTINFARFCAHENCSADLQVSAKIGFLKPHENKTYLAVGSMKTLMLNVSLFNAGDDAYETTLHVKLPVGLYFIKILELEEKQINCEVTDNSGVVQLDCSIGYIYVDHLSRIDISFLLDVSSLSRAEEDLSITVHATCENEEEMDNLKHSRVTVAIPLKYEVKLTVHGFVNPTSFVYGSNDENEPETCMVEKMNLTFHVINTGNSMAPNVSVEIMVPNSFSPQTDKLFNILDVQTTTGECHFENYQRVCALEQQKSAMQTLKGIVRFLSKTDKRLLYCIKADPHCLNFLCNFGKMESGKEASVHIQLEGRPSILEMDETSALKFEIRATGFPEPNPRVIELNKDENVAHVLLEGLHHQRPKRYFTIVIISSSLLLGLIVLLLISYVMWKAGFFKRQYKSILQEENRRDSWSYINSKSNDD
T1 sequence (P05556 21-798): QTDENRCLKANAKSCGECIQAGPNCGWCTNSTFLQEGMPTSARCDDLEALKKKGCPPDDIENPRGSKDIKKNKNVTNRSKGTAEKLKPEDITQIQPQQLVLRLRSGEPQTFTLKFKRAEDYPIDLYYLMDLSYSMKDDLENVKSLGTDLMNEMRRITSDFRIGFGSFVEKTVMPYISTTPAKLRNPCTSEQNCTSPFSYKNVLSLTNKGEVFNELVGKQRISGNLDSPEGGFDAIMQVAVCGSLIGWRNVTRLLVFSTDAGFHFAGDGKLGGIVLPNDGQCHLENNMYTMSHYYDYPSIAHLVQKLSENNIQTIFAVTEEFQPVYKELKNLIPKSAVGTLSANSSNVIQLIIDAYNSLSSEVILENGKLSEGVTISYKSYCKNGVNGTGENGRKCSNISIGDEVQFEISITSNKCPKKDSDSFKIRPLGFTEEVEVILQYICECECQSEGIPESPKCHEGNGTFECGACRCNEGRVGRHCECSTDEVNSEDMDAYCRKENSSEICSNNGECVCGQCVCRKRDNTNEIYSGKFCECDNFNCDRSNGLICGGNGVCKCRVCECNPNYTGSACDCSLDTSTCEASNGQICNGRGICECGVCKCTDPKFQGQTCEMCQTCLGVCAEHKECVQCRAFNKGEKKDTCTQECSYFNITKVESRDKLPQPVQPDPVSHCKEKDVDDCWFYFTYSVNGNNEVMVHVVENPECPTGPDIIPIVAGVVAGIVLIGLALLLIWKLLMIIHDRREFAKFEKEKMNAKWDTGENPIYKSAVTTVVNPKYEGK

Work on `Cc1ccccc1NC(=O)Nc1ccc(CN2CCC[C@H](NC(=O)N[C@@H](CC(=O)O)c3ccc4c(c3)OCO4)C2=O)cc1` yielded a pIC50 of 9.52.

same assay, conditions: Table 3; Ramos cell adhesion to CS1 conjugated ovalbumin, 30 minutes at 37° C.

Going from `O=C(O)C[C@H](NC(=O)Nc1c(O)ccn(Cc2ccccc2Cl)c1=O)c1cccc(F)c1` to `O=C(O)C[C@H](NC(=O)Nc1c(O)ccn(Cc2ccccc2Cl)c1=O)c1ccc2c(c1)OCO2`, the pIC50 rises from 7.40 to 7.70 (0.30 log units).

`Cc1ccc([C@H](CC(=O)O)NC(=O)Nc2c(Nc3cc(C)no3)ccn(Cc3ccccc3Cl)c2=O)cc1` and `Cc1ccc([C@H](CC(=O)O)NC(=O)Nc2c(C)ccn(Cc3ccccc3F)c2=O)cc1` are within 0.2 log units of each other in pIC50: 7.82 for the first, 7.70 for the second.

First: O=C(O)C[C@H](NC(=O)N1CCCCc2ccn(Cc3ccccc3)c(=O)c21)c1ccc2c(c1)OCO2 [(3S)-3-(1,3-benzodioxol-5-yl)-3-({[9-oxo-8-(phenylmethyl)-2,3,4,5,8,9-hexahydro-1H-pyrido[3,4-b]azepin-1-yl]carbonyl}amino)propanoic acid]
Second: Cc1ccc([C@H](CC(=O)O)NC(=O)Nc2c(N3CCN(C)CC3)ccn(Cc3ccccc3Cl)c2=O)cc1
The pIC50 of the first is 3.12 log units lower: 5.40 for the first, 8.52 for the second.

`Cc1ccc([C@H](CC(=O)O)NC(=O)Nc2c(C)ccn(Cc3ccccc3Cl)c2=O)cc1C` [(3S)-3-{[({1-[(2-chlorophenyl)methyl]-4-methyl-2-oxo-1,2-dihydro-3-pyridinyl}amino)carbonyl]amino}-3-(3,4-dimethylphenyl)propanoic acid] was tested, and the pIC50 was 8.00.

same assay, conditions: Table 4; Ramos cell adhesion to CS1 conjugated ovalbumin, 30 minutes at 37° C.

Compared with `Cc1ccc([C@H](CC(=O)O)NC(=O)Nc2cccn(Cc3c(Cl)cccc3Cl)c2=O)cc1`, `COc1ccc([C@H](CC(=O)O)NC(=O)Nc2cccn(Cc3ccccc3Cl)c2=O)cc1` is 0.30 log units higher in pIC50: 6.70 for the first, 7.00 for the second. The second is the more potent here.

First: COc1ccc(Cn2cccc(NC(=O)N[C@@H](CC(=O)O)c3ccc4c(c3)OCO4)c2=O)cc1
Second: O=C(O)C[C@H](NC(=O)Nc1cccn(Cc2cccs2)c1=O)c1ccc(F)cc1
The pIC50 of the first is 0.28 log units lower: 5.52 for the first, 5.80 for the second.

First: Cc1ccc([C@H](CC(=O)O)NC(=O)Nc2cccn(Cc3c(C)noc3C)c2=O)cc1
Second: Cc1ccc([C@H](CC(=O)O)NC(=O)Nc2cccn(CC(=O)Nc3ccccc3O)c2=O)cc1
The pIC50 of the first is higher: 5.52 for the first, < 5.00 for the second. The first is the more potent here.

`N#Cc1cccc(CN2CCCCC(NC(=O)N[C@@H](CC(=O)O)c3ccc4c(c3)OCO4)C2=O)c1` (some centres unmarked) gave a pIC50 of 7.40.

same assay, conditions: Table 5; Ramos cell adhesion to CS1 conjugated ovalbumin; dose required to give 50% inhibition

Going from `CCCCOc1cccc([C@H](CC(=O)O)NC(=O)Nc2c(O)ccn(Cc3ccccc3Cl)c2=O)c1` [(3S)-3-(3-butoxyphenyl)-3-[({[1-(2-chlorobenzyl)-4-hydroxy-2-oxo-1,2-dihydropyridin-3-yl]amino}carbonyl)amino]propanoic acid] to `CCOc1cccc([C@H](CC(=O)O)NC(=O)Nc2c(O)ccn(Cc3ccccc3Cl)c2=O)c1` [(3S)-3-[({[1-(2-chlorobenzyl)-4-hydroxy-2-oxo-1,2-dihydropyridin-3-yl]amino}carbonyl)amino]-3-(3-ethoxyphenyl)propanoic acid], the pIC50 rises from 8.30 to 8.52 (0.22 log units).

`Cc1ccc([C@H](CC(=O)O)NC(=O)Nc2c(O)c(C)cn(Cc3ccc(S(C)(=O)=O)cc3)c2=O)cc1` and `Cc1ccc(Cn2ccc(O)c(NC(=O)N[C@@H](CC(=O)O)c3ccc(C)cc3)c2=O)cc1` are within 0.2 log units of each other in pIC50: 7.70 for the first, 7.60 for the second.

`Cc1ccc([C@H](CC(=O)O)NC(=O)Nc2cccn(Cc3c(O)cccc3Cl)c2=O)cc1` and `COc1cccc(Cl)c1Cn1cccc(NC(=O)N[C@@H](CC(=O)O)c2ccc(C)cc2)c1=O` [(3S)-3-[({[1-(2-chloro-6-methoxybenzyl)-2-oxo-1,2-dihydropyridin-3-yl]amino}carbonyl)amino]-3-(4-methylphenyl)propanoic acid] are the same in pIC50: 7.00 for the first, 7.00 for the second.

First: O=C(O)C[C@H](NC(=O)Nc1c(O)ccn(Cc2ccccc2Cl)c1=O)c1ccc2c(c1)OCCO2 [(3S)-3-[({[1-(2-chlorobenzyl)-4-hydroxy-2-oxo-1,2-dihydropyridin-3-yl]amino}carbonyl)amino]-3-(2,3-dihydro-1,4-benzodioxin-6-yl)propanoic acid]
Second: O=C(O)CC(NC(=O)Nc1c(O)ccn(Cc2ccccc2Cl)c1=O)c1cccnc1 (centres unmarked)
The pIC50 of the first is 0.70 log units higher: 8.00 for the first, 7.30 for the second. The first is the more potent here.

Compared with `COCCOc1cccc([C@H](CC(=O)O)NC(=O)Nc2c(O)ccn(Cc3ccccc3Cl)c2=O)c1` [(3S)-3-[({[1-(2-chlorobenzyl)-4-hydroxy-2-oxo-1,2-dihydropyridin-3-yl]amino}carbonyl)amino]-3-[3-(2-methoxyethoxy)phenyl]propanoic acid], `Cc1ccc([C@H](CC(=O)O)NC(=O)Nc2c(O)ccn(Cc3ccccc3C)c2=O)cc1` is 0.82 log units lower in pIC50: 8.52 for the first, 7.70 for the second.

Compared with `Cc1ccc([C@H](CC(=O)O)NC(=O)Nc2c(O)ccn(Cc3ccccc3S(C)(=O)=O)c2=O)cc1`, `Cc1ccc([C@H](CC(=O)O)NC(=O)Nc2c(O)ccn(Cc3ccccc3OC(F)F)c2=O)cc1` is 0.34 log units lower in pIC50: 7.46 for the first, 7.12 for the second. The first is the more potent here.

First: Cc1ccc([C@H](CC(=O)O)NC(=O)Nc2c(O)ccn(Cc3ccc(Cl)cc3)c2=O)cc1 [(3S)-3-[({[1-(4-chlorobenzyl)-4-hydroxy-2-oxo-1,2-dihydropyridin-3-yl]amino}carbonyl)amino]-3-(4-methylphenyl)propanoic acid]
Second: COc1cccc(Cn2ccc(O)c(NC(=O)N[C@@H](CC(=O)O)c3ccc(C)cc3)c2=O)c1
The pIC50 of the first is 0.75 log units higher: 8.15 for the first, 7.40 for the second. The first is the more potent here.

Going from `CCCc1cn(Cc2ccc(Cl)cc2)c(=O)c(NC(=O)N[C@@H](CC(=O)O)c2cccc(OCC)c2)c1O` to `Cc1ccc([C@H](CC(=O)O)NC(=O)Nc2c(O)ccn(Cc3cc(C(F)(F)F)ccc3Cl)c2=O)cc1` [(3S)-3-{[({1-[2-chloro-5-(trifluoromethyl)benzyl]-4-hydroxy-2-oxo-1,2-dihydropyridin-3-yl}amino)carbonyl]amino}-3-(4-methylphenyl)propanoic acid], the pIC50 rises from 7.52 to 8.00 (0.48 log units).

same assay, conditions: Table 6; Ramos cell adhesion to CS1 conjugated ovalbumin, 30 minutes at 37° C.

Compared with `Cc1ccc([C@H](CC(=O)O)NC(=O)Nc2c(O)c(C)cn(Cc3cc(OC(C)C)ccc3Cl)c2=O)cc1`, `Cc1ccc([C@H](CC(=O)O)NC(=O)Nc2c(O)c(C)cn(Cc3cc(Cl)ccc3F)c2=O)cc1` is 0.33 log units lower in pIC50: 8.15 for the first, 7.82 for the second. The first is the more potent here.

First: Cc1ccc([C@H](CC(=O)O)NC(=O)Nc2c(O)c(C)cn(Cc3ccccc3Cl)c2=O)cc1C
Second: Cc1ccc([C@H](CC(=O)O)NC(=O)Nc2c(O)c3ccccc3n(Cc3ccccc3Cl)c2=O)cc1C
The pIC50 of the first is 0.22 log units higher: 7.82 for the first, 7.60 for the second.

Going from `CCOc1cc(OCC)cc([C@H](CC(=O)O)NC(=O)Nc2c(O)ccn(Cc3ccccc3Cl)c2=O)c1` to `O=C(O)C[C@H](NC(=O)Nc1c(O)ccn(Cc2ccccc2Cl)c1=O)c1cccc(OC(F)(F)C(F)F)c1`, the pIC50 falls from 8.15 to 7.82 (0.33 log units). The first is the more potent here.

Compared with `Cc1ccc([C@H](CC(=O)O)NC(=O)Nc2c(O)c(C3CC3)cn(Cc3ccccc3Cl)c2=O)cc1`, `Cc1cn(Cc2ccccc2Cl)c(=O)c(NC(=O)N[C@@H](CC(=O)O)c2ccc(OC(F)(F)F)cc2)c1O` is 0.55 log units lower in pIC50: 7.70 for the first, 7.15 for the second. The first is the more potent here.

First: Cc1cn(Cc2ccccc2Cl)c(=O)c(NC(=O)N[C@@H](CC(=O)O)c2cccc(OCC(F)(F)F)c2)c1O
Second: CCOc1cccc([C@H](CC(=O)O)NC(=O)Nc2c(O)c(C)cn(Cc3c(C)cccc3Cl)c2=O)c1
The pIC50 of the first is 0.58 log units lower: 7.82 for the first, 8.40 for the second. The second is the more potent here.

Going from `O=C(O)C[C@@H](Cc1ccccc1Cl)NC(=O)Nc1c(O)ccn(Cc2ccccc2Cl)c1=O` to `CCOc1cccc([C@H](CC(=O)O)NC(=O)Nc2c(O)c(C)cn(Cc3c(Cl)cccc3OC)c2=O)c1`, the pIC50 rises from 6.15 to 8.52 (2.37 log units).

In the case of `COc1cccc(F)c1Cn1cc(C)c(O)c(NC(=O)N[C@@H](CC(=O)O)c2ccc(C)cc2)c1=O`, the pIC50 was 8.00.

same assay, conditions: Table 7; Ramos cell adhesion to CS1 conjugated ovalbumin; dose required to give 50% inhibition

`O=C(O)C[C@H](NC(=O)Nc1c(O)c2c(n(Cc3ccccc3Cl)c1=O)CCC2)c1cccc(OC(F)(F)C(F)F)c1` and `O=C(O)C[C@H](NC(=O)Nc1c(O)c2c(n(Cc3ccccc3Cl)c1=O)CCC2)c1cccc(C(F)F)c1` are the same in pIC50: 8.40 for the first, 8.40 for the second.

`COc1ccc([C@H](CC(=O)O)NC(=O)Nc2c(O)c3c(n(Cc4c(C)cccc4Cl)c2=O)CCC3)cc1F` and `Cc1cccc([C@H](CC(=O)O)NC(=O)Nc2c(O)c3c(n(Cc4c(C)cccc4Cl)c2=O)CCC3)c1` are within 0.2 log units of each other in pIC50: 8.52 for the first, 8.40 for the second.

`Cc1cn(Cc2ccccc2Cl)c(=O)c(NC(=O)N[C@@H](CC(=O)O)c2cnc3ccccc3c2)c1O` and `Cc1cn(Cc2ccccc2Cl)c(=O)c(NC(=O)N[C@@H](CC(=O)O)c2cccc(C(F)F)c2)c1O` [(3S)-3-{[({1-[(2-chlorophenyl)methyl]-4-hydroxy-5-methyl-2-oxo-1,2-dihydro-3-pyridinyl}amino)carbonyl]amino}-3-[3-(difluoromethyl)phenyl]propanoic acid] are within 0.2 log units of each other in pIC50: 7.66 for the first, 7.70 for the second.

Going from `COc1ccc([C@H](CC(=O)O)NC(=O)Nc2c(O)c(C)cn(Cc3ccccc3Cl)c2=O)cc1C` to `Cc1cc(C)cc(-c2cccc([C@H](CC(=O)O)NC(=O)Nc3c(O)c(C)cn(Cc4ccccc4Cl)c3=O)c2)c1`, the pIC50 falls from 8.05 to 7.30 (0.75 log units). The first is the more potent here.

Compared with `O=C(O)C[C@H](NC(=O)Nc1c(O)c2c(n(Cc3ccccc3Cl)c1=O)CCC2)c1ccccc1`, `O=C(O)CC(NC(=O)Nc1c(O)c2c(n(Cc3ccccc3Cl)c1=O)CCC2)c1ccco1` (centres unmarked) is 0.20 log units higher in pIC50: 8.10 for the first, 8.30 for the second. The second is the more potent here.

Going from `CCOc1cc([C@H](CC(=O)O)NC(=O)Nc2c(O)c3c(n(Cc4ccccc4Cl)c2=O)CCC3)cc(Cl)c1OCC` to `CCOc1cccc(Cl)c1Cn1c2c(c(O)c(NC(=O)N[C@@H](CC(=O)O)c3cccc(OC4CCCC4)c3)c1=O)CCC2`, the pIC50 falls from 8.52 to 8.22 (0.30 log units).

First: CCCCOc1cccc([C@H](CC(=O)O)NC(=O)Nc2c(O)c(C)cn(Cc3c(Cl)cccc3OCC)c2=O)c1
Second: CCOc1cccc(Cl)c1Cn1nc(C)c(O)c(NC(=O)N[C@@H](CC(=O)O)c2cccc(OC(C)C)c2)c1=O
The pIC50 of the first is 0.30 log units lower: 8.40 for the first, 8.70 for the second.

`CCOc1cccc(Cl)c1Cn1c(C)c(C)c(O)c(NC(=O)N[C@@H](CC(=O)O)c2ccccc2)c1=O` and `CCOc1cccc(Cl)c1Cn1c(C)c(CC)c(O)c(NC(=O)N[C@@H](CC(=O)O)c2cccc(OC(C)C)c2)c1=O` are within 0.2 log units of each other in pIC50: 8.40 for the first, 8.30 for the second.

Compared with `CCn1c2ccccc2c2cc([C@H](CC(=O)O)NC(=O)Nc3c(O)c(C)cn(Cc4ccccc4Cl)c3=O)ccc21`, `Cc1ccc(-c2ccc([C@H](CC(=O)O)NC(=O)Nc3c(O)ccn(Cc4ccccc4Cl)c3=O)cc2)cc1` is 0.24 log units lower in pIC50: 7.64 for the first, 7.40 for the second.

— US6972296B2, “Carboxylic acid derivatives that inhibit the binding of integrins to their receptors” (Encysive Pharmaceuticals Inc., priority 1999, dated 2005)
